Results reported in ChEMBL document CHEMBL2396574, “Design, synthesis and evaluation of retinoids with novel bulky hydrophobic partial structures” (Bioorg Med Chem, 2013).
Calls of active or inactive are those of the source. The rule behind the calls is not given here.

Biological target: T1, Retinoic acid receptor RXR-gamma (Homo sapiens) (UniProt P48443)
T1 sequence (whole entry): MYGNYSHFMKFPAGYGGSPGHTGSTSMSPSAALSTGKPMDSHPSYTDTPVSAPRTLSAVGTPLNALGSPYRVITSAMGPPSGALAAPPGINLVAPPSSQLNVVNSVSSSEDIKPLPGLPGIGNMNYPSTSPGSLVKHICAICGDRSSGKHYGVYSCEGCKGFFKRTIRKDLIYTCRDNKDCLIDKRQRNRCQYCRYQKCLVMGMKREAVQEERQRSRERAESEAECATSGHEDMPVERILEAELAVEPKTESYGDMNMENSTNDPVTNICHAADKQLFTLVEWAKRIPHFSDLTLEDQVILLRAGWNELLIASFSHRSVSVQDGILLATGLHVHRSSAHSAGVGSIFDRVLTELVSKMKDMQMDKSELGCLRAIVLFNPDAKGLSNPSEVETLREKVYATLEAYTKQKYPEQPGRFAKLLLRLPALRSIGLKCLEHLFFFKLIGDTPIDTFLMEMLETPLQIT
Assay: Transactivation of full-length RXRgamma (unknown origin) expressed in African green monkey COS1 cells at 1000 nM by luciferase reporter gene assay
Assay type: cell-based
Details: COS-1

Question: For `O=C(Nc1ccc(C(=O)O)c(F)c1)c1cc2c3c(c1)CCCCC3CCCC2`, which Activity is on record?
Answer: The Activity was “inactive”.

Question: How did the Activity turn out when `O=C(O)c1ccc(C(=O)Nc2cc3c4c(c2)CCCCC4CCCC3)cc1` was run?
Answer: The Activity was “inactive”.

Question: How did the Activity turn out when `O=C(Nc1ccc(C(=O)O)c(F)c1)c1cc2c3c(c1)CCCC3CCC2` was run?
Answer: Its Activity is “inactive”.

Question: How did the Activity turn out when `O=C(O)c1ccc(C(=O)Nc2cc3c4c(c2)CCCC4CCC3)cc1` was run?
Answer: The Activity was “inactive”.

Question: `O=C(O)c1ccc(NC(=O)c2cc3c4c(c2)CCCCC4CCCC3)cc1` was tested. Which Activity did it give?
Answer: Its Activity is “inactive”.

Question: How did the Activity turn out when `O=C(Nc1ccc(C(=O)O)c(O)c1)c1cc2c3c(c1)CCCCC3CCCC2` was run?
Answer: The Activity was “inactive”.

System: HL-60
Assay: Induction of human HL60 cell differentiation into myeloid cells at 100 nM after 4 days by NBT reduction assay relative to control
Assay type: functional
Details: not given

Question: With `O=C(Nc1ccc(C(=O)O)c(F)c1)c1cc2c3c(c1)CCCCC3CCCC2` as the compound, how does the Activity read?
Answer: Its Activity is 44%.

Question: With `O=C(O)c1ccc(C(=O)Nc2cc3c4c(c2)CCCCC4CCCC3)cc1` as the compound, how does the Activity read?
Answer: The Activity was 53%.

Question: For `O=C(Nc1ccc(C(=O)O)c(F)c1)c1cc2c3c(c1)CCCC3CCC2`, which Activity is on record?
Answer: The Activity was 60%.

Question: How did the Activity turn out when `O=C(O)c1ccc(C(=O)Nc2cc3c4c(c2)CCCC4CCC3)cc1` was run?
Answer: Its Activity is 18%.

Question: For `O=C(O)c1ccc(NC(=O)c2cc3c4c(c2)CCCCC4CCCC3)cc1`, which Activity is on record?
Answer: Its Activity is 40%.

Question: `O=C(Nc1ccc(C(=O)O)c(O)c1)c1cc2c3c(c1)CCCCC3CCCC2` was tested. Which Activity did it give?
Answer: Its Activity is 41%.

System: HL-60
Assay: Induction of human HL60 cell differentiation into myeloid cells at 10^-6 M after 4 days by NBT reduction assay
Assay type: functional, cell-based
Details: not given

Question: For `O=C(Nc1ccc(C(=O)O)c(F)c1)c1cc2c3c(c1)CCCCC3CCCC2`, which Activity is on record?
Answer: The Activity was “Active”.

Biological target: T2, Retinoic acid receptor gamma (Homo sapiens) (UniProt P13631)
T2 sequence (whole entry): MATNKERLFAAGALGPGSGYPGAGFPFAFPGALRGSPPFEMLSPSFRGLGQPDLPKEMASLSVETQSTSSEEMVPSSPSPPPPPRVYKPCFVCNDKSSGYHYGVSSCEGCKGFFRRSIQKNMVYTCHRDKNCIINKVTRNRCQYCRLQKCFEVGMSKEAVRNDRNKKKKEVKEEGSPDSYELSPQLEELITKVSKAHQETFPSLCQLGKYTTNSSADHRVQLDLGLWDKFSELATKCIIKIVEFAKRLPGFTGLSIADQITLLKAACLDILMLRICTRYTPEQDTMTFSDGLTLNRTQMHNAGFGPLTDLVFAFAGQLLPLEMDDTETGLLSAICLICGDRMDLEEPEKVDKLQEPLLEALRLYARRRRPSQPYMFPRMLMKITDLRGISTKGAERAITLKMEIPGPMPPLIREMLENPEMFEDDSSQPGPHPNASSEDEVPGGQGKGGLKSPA
Assay: Transactivation of Gal4-fused RARgamma (unknown origin) expressed in African green monkey COS1 cells at 100 nM by luciferase reporter gene assay relative to DMSO-treated control
Assay type: cell-based
Details: COS-1

Question: Which fold change (FC) does the source give for `O=C(Nc1ccc(C(=O)O)c(F)c1)c1cc2c3c(c1)CCCCC3CCCC2` here?
Answer: Its fold change (FC) is 5.

Question: `O=C(O)c1ccc(C(=O)Nc2cc3c4c(c2)CCCCC4CCCC3)cc1` was tested. Which fold change (FC) did it give?
Answer: Its fold change (FC) is 1.

Question: For `O=C(Nc1ccc(C(=O)O)c(F)c1)c1cc2c3c(c1)CCCC3CCC2`, which fold change (FC) is on record?
Answer: The fold change (FC) was 2.

Question: Which fold change (FC) does the source give for `O=C(O)c1ccc(C(=O)Nc2cc3c4c(c2)CCCC4CCC3)cc1` here?
Answer: Its fold change (FC) is 1.

Question: For `O=C(O)c1ccc(NC(=O)c2cc3c4c(c2)CCCCC4CCCC3)cc1`, which fold change (FC) is on record?
Answer: The fold change (FC) was 10.

Question: Which fold change (FC) does the source give for `O=C(Nc1ccc(C(=O)O)c(O)c1)c1cc2c3c(c1)CCCCC3CCCC2` here?
Answer: The fold change (FC) was 2.

System: HL-60
Assay: Induction of human HL60 cell differentiation into myeloid cells at 10 nM after 4 days by NBT reduction assay relative to control
Assay type: functional
Details: not given

Question: With `O=C(Nc1ccc(C(=O)O)c(F)c1)c1cc2c3c(c1)CCCCC3CCCC2` as the compound, how does the Activity read?
Answer: The Activity was 28%.

Question: Which Activity does the source give for `O=C(O)c1ccc(C(=O)Nc2cc3c4c(c2)CCCCC4CCCC3)cc1` here?
Answer: Its Activity is 13%.

Question: For `O=C(Nc1ccc(C(=O)O)c(F)c1)c1cc2c3c(c1)CCCC3CCC2`, which Activity is on record?
Answer: Its Activity is 49%.

Question: For `O=C(O)c1ccc(C(=O)Nc2cc3c4c(c2)CCCC4CCC3)cc1`, which Activity is on record?
Answer: Its Activity is 7%.

Question: How did the Activity turn out when `O=C(O)c1ccc(NC(=O)c2cc3c4c(c2)CCCCC4CCCC3)cc1` was run?
Answer: Its Activity is 34%.

Question: How did the Activity turn out when `O=C(Nc1ccc(C(=O)O)c(O)c1)c1cc2c3c(c1)CCCCC3CCCC2` was run?
Answer: The Activity was 29%.

Biological target: T3, Retinoic acid receptor RXR-beta (Homo sapiens) (UniProt P28702)
T3 sequence (whole entry): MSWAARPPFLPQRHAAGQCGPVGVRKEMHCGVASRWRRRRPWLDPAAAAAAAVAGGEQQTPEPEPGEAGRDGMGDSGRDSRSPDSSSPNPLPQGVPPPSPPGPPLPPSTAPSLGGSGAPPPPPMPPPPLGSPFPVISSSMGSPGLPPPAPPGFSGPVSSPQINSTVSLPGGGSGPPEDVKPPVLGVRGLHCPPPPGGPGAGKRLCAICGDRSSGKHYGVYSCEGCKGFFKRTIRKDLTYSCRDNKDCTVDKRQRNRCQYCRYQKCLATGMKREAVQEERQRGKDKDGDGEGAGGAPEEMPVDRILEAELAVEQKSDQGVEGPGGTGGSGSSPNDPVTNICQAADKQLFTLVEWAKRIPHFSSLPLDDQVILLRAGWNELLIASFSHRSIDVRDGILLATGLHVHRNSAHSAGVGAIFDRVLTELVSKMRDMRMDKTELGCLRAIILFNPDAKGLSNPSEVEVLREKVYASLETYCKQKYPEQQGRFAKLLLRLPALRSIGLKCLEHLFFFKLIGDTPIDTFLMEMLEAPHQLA
Assay: Transactivation of full-length RXRbeta (unknown origin) expressed in African green monkey COS1 cells at 1000 nM by luciferase reporter gene assay
Assay type: cell-based
Details: COS-1

Question: How did the Activity turn out when `O=C(Nc1ccc(C(=O)O)c(F)c1)c1cc2c3c(c1)CCCCC3CCCC2` was run?
Answer: The Activity was “inactive”.

Question: How did the Activity turn out when `O=C(O)c1ccc(C(=O)Nc2cc3c4c(c2)CCCCC4CCCC3)cc1` was run?
Answer: Its Activity is “inactive”.

Question: For `O=C(Nc1ccc(C(=O)O)c(F)c1)c1cc2c3c(c1)CCCC3CCC2`, which Activity is on record?
Answer: Its Activity is “inactive”.

Question: Which Activity does the source give for `O=C(O)c1ccc(C(=O)Nc2cc3c4c(c2)CCCC4CCC3)cc1` here?
Answer: The Activity was “inactive”.

Question: For `O=C(O)c1ccc(NC(=O)c2cc3c4c(c2)CCCCC4CCCC3)cc1`, which Activity is on record?
Answer: Its Activity is “inactive”.

Question: For `O=C(Nc1ccc(C(=O)O)c(O)c1)c1cc2c3c(c1)CCCCC3CCCC2`, which Activity is on record?
Answer: Its Activity is “inactive”.

Biological target: T4, Retinoic acid receptor beta (Homo sapiens) (UniProt P10826)
T4 sequence (whole entry): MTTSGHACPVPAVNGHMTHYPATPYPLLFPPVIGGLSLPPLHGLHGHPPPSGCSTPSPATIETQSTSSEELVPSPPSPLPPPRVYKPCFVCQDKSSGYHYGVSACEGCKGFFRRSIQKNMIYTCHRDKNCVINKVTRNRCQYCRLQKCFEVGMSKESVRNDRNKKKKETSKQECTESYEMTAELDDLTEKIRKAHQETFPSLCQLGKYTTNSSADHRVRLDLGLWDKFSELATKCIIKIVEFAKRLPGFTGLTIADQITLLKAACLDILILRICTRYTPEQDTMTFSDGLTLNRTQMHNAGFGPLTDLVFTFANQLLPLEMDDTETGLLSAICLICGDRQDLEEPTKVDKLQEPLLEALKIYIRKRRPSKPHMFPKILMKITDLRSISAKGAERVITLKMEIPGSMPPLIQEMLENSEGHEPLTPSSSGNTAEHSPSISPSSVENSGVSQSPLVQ
Assay: Transactivation of Gal4-fused RARbeta (unknown origin) expressed in African green monkey COS1 cells at 100 nM by luciferase reporter gene assay relative to DMSO-treated control
Assay type: cell-based
Details: COS-1

Question: `O=C(Nc1ccc(C(=O)O)c(F)c1)c1cc2c3c(c1)CCCCC3CCCC2` was tested. Which fold change (FC) did it give?
Answer: The fold change (FC) was 19.

Question: `O=C(O)c1ccc(C(=O)Nc2cc3c4c(c2)CCCCC4CCCC3)cc1` was tested. Which fold change (FC) did it give?
Answer: The fold change (FC) was 13.

Question: How did the fold change (FC) turn out when `O=C(Nc1ccc(C(=O)O)c(F)c1)c1cc2c3c(c1)CCCC3CCC2` was run?
Answer: Its fold change (FC) is 7.

Question: `O=C(O)c1ccc(C(=O)Nc2cc3c4c(c2)CCCC4CCC3)cc1` was tested. Which fold change (FC) did it give?
Answer: The fold change (FC) was 5.

Question: With `O=C(O)c1ccc(NC(=O)c2cc3c4c(c2)CCCCC4CCCC3)cc1` as the compound, how does the fold change (FC) read?
Answer: Its fold change (FC) is 27.

Question: Which fold change (FC) does the source give for `O=C(Nc1ccc(C(=O)O)c(O)c1)c1cc2c3c(c1)CCCCC3CCCC2` here?
Answer: Its fold change (FC) is 11.
